Source: PMC5944384 (Chemical Science, 2018)
One block for each compound: values may come before it.

Assays:
[1] = test system: HCT-15 colon cancer cells; test: MTT cytotoxicity test, 72 h; format: cell-based, human; settings: read-out: IC50 HCT-15 colon
[2] = test system: BCPAP thyroid cancer cells; test: MTT cytotoxicity test, 72 h; format: cell-based, human; settings: read-out: IC50 BCPAP thyroid
[3] = test system: PSN-1 pancreatic cancer cells; test: MTT cytotoxicity test, 72 h; format: cell-based, human; settings: read-out: IC50 PSN-1 pancreas
[4] = test system: LoVo colon cancer cells; test: MTT cytotoxicity test, 72 h; format: cell-based, human; settings: read-out: IC50 LoVo colon
[5] = test system: 2008 ovarian adenocarcinoma cells (cisplatin sensitive); test: MTT cytotoxicity test, 72 h; format: cell-based, human; settings: read-out: IC50 2008 ovary
[6] = test system: C13* ovarian cancer cells (cisplatin resistant); test: MTT cytotoxicity test, 72 h; format: cell-based, human; settings: for Resistant factor (RF): IC50 resistant/parent line, C13*/2008; for IC50: read-out: IC50 C13* ovary, MTT, 72 h
[7] = test system: panel of human cancer cell lines (HCT-15, BCPAP, PSN-1, LoVo, 2008, C13*); test: MTT cytotoxicity test, average over the six cell lines; format: cell-based; settings: for IC50: read-out: Average IC50, average of one compound over the six cell lines
[8] = test system: HEK293 cells; test: MTT cytotoxicity test in non-cancerous cells; format: cell-based, human; settings: for Selectivity index (SI) BCPAP: IC50 non-tumor (HEK293)/tumor cell line BCPAP; for Selectivity index (SI) LoVo: IC50 non-tumor (HEK293)/tumor cell line LoVo; for Selectivity index (SI) PSN-1: IC50 non-tumor (HEK293)/tumor cell line PSN-1; for IC50: read-out: IC50 HEK293, MTT, 72 h, non-cancerous cells
[9] = test system: PSN-1 3D spheroids; test: Cytotoxicity in 3D spheroid cultures, APH test; settings: for IC50: read-out: IC50 PSN-1 3D, spheroids, 72 hours
[10] = test system: LoVo OXP colon cancer cells; test: MTT cytotoxicity test, oxaliplatin resistant cells; format: cell-based, human; settings: IC50 resistant/parent line
[11] = Stability in phosphate buffer at 37 °C monitored by HPLC; format: physicochemical; settings: pH 7, HPLC, followed over days
[12] = molecular target: T1, COX-2 (Homo sapiens, UniProt P35354); test: COX-2 inhibition in treated cells; format: cell-based; settings: PSN-1 cells, 24 h, 1 μM
T1 sequence (P35354 18-604): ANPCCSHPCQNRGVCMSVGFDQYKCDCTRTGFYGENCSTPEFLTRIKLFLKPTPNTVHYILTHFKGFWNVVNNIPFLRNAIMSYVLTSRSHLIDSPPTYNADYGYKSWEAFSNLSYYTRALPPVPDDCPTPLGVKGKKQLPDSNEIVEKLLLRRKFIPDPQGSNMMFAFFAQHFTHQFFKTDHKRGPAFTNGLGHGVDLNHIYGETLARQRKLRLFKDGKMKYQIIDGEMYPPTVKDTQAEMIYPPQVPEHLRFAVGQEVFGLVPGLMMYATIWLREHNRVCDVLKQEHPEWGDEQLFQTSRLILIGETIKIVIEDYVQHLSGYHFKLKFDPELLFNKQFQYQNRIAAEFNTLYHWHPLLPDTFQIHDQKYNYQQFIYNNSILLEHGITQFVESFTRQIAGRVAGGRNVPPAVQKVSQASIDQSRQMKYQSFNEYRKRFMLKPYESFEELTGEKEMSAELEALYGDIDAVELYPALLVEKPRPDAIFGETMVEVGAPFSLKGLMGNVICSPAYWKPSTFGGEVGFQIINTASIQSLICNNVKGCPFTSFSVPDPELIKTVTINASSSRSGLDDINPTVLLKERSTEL

[13] = test system: PSN-1 cells; test: Mitochondrial membrane potential; format: cell-based, human; settings: 24 h, 1 μM
[14] = test system: PSN-1 cells; test: ROS production; format: cell-based, human; settings: 10 μM, compared with antimycin A
[15] = test system: HEK293 cells; test: ROS production in non-cancerous cells; format: cell-based, human; settings: 10 µM
[16] = test system: HEK293 cells; test: Mitochondrial membrane potential in non-cancerous cells; format: cell-based, human; settings: 24 h, 1 µM

Compound: [NH2][Pt]([NH2])([Cl])[Cl] [CDDP, Cisplatin]
IC50 [1]: 15.3 ± 2.63 µM
IC50 [2]: 7.38 ± 1.53 µM
IC50 [3]: 18.2 ± 3.11 µM
IC50 [4]: 9.15 ± 2.07 µM
IC50 [5]: 2.22 ± 1.02 µM
Resistant factor (RF) [6]: 10.1
IC50 [6]: 22.5 ± 3.15 µM
IC50 [7]: 12.5 µM
Selectivity index (SI) BCPAP [8]: 2.6
Selectivity index (SI) LoVo [8]: 2.1
Selectivity index (SI) PSN-1 [8]: 1.1
IC50 [8]: 19.6 ± 2.33 µM
IC50 [9]: 52.6 ± 3.78 µM

Stability in phosphate buffer solution [11]: stable
COX-2 inhibition [12]: 8.4%
Compound: [NH2][Pt]([NH2])([Cl])([Cl])([O]C(=O)CCCc1ccccc1)[O]C(=O)C(Cl)Cl [CPD, ctc-[Pt(NH3)2(PhB)(DCA)Cl2]]
IC50 [1]: 1.06 ± 0.13 µM
IC50 [2]: 0.11 ± 0.03 µM
IC50 [3]: 0.1 ± 0.02 µM
IC50 [4]: 0.019 ± 0.01 µM
IC50 [5]: 0.33 ± 0.04 µM
Resistant factor (RF) [6]: 1.8
IC50 [6]: 0.58 ± 0.06 µM
Average IC50, times lower than cisplatin ([7]; average over six cell lines): 34 fold
Average IC50, times lower than oxaliplatin ([7]; average over six cell lines): 9 fold
Average IC50, times more potent than CVD ([7]; average over six cell lines): 3 fold
IC50 [7]: 0.37 µM
Selectivity index (SI) BCPAP [8]: 14.2
Selectivity index (SI) LoVo [8]: 82.1
Selectivity index (SI) PSN-1 [8]: 15.6
IC50 [8]: 1.56 ± 0.22 µM
Resistant factor (RF) [10]: < 2
Cells with hypopolarized mitochondrial membrane potential [13]: 25–30%
Increase in cellular basal ROS production [14]: only slightly inferior to that elicited by antimycin A
Induction of cellular ROS production [15]: barely effective
Effect on mitochondrial membrane potential [16]: barely effective
Times more active than cisplatin in PSN-1 3D spheroids ([9]; 72 hours): more than 50 fold
IC50 [9]: 0.95 ± 1.12 µM

Compound: O=C1[O][Pt]2([NH][C@@H]3CCCC[C@H]3[NH]2)[O]C1=O [OXP, oxaliplatin]
IC50 [1]: 1.15 ± 0.43 µM
IC50 [2]: 4.37 ± 1.07 µM
IC50 [3]: 8.25 ± 3.42 µM
IC50 [4]: 1.01 ± 0.34 µM
IC50 [5]: 1.53 ± 0.88 µM
Resistant factor (RF) [6]: 2.0
IC50 [6]: 3.06 ± 1 µM
IC50 [7]: 3.23 µM
